Data from the NIST ThermoML archive (doi:10.1016/j.jct.2009.06.021).

Assay: xn = mol fraction of the nth substance listed
Details: for surface tension liquid-gas: Maximal bubble pressure; for mass density: 101 kPa, Liquid, Vibrating tube method

ClC(Cl)(Cl)Cl [tetrachloromethane] + C[S+](C)[O-]
Details | mass density [kg/m3] | surface tension liquid-gas [mN/m]
298.15 K, x1 = 0.0674 | 1141.26 | –
298.15 K, x1 = 0.0994 | – | 38.6
298.15 K, x1 = 0.101 | 1163.32 | –
298.15 K, x1 = 0.1349 | 1185.11 | –
298.15 K, x1 = 0.1643 | 1203.27 | –
298.15 K, x1 = 0.1969 | – | 34.6
298.15 K, x1 = 0.2133 | 1232.98 | –
298.15 K, x1 = 0.2513 | – | 32.9
298.15 K, x1 = 0.3045 | 1287.19 | –
298.15 K, x1 = 0.3299 | – | 30.8
298.15 K, x1 = 0.383 | – | 29.7
298.15 K, x1 = 0.4641 | 1370.58 | –
298.15 K, x1 = 0.5159 | – | 27.8
298.15 K, x1 = 0.6022 | 1433.93 | –
298.15 K, x1 = 0.6043 | – | 26.8
298.15 K, x1 = 0.6909 | – | 25.9
298.15 K, x1 = 0.7132 | 1481.07 | –
298.15 K, x1 = 0.7493 | – | 25.8
298.15 K, x1 = 0.7604 | 1499.6 | –
298.15 K, x1 = 0.8663 | – | 25.4
298.15 K, x1 = 0.8683 | 1539.93 | –
298.15 K, x1 = 0.913 | 1555.64 | –
303.15 K, x1 = 0.0674 | 1135.93 | –
303.15 K, x1 = 0.0994 | – | 38
303.15 K, x1 = 0.101 | 1157.83 | –
303.15 K, x1 = 0.1349 | 1179.45 | –
303.15 K, x1 = 0.1643 | 1197.47 | –
303.15 K, x1 = 0.1969 | – | 34.2
303.15 K, x1 = 0.2133 | 1226.93 | –
303.15 K, x1 = 0.2513 | – | 32.6
303.15 K, x1 = 0.3045 | 1280.68 | –
303.15 K, x1 = 0.3299 | – | 30.4
303.15 K, x1 = 0.383 | – | 29.2
303.15 K, x1 = 0.4641 | 1363.35 | –
303.15 K, x1 = 0.5159 | – | 27.1
303.15 K, x1 = 0.6022 | 1425.99 | –
303.15 K, x1 = 0.6043 | – | 26.2
303.15 K, x1 = 0.6909 | – | 25.3
303.15 K, x1 = 0.7132 | 1472.61 | –
303.15 K, x1 = 0.7493 | – | 25.1
303.15 K, x1 = 0.7604 | 1490.94 | –
303.15 K, x1 = 0.8663 | – | 24.6
303.15 K, x1 = 0.8683 | 1530.74 | –
303.15 K, x1 = 0.913 | 1546.21 | –
308.15 K, x1 = 0.0674 | 1127.96 | –
308.15 K, x1 = 0.0994 | – | 37.4
308.15 K, x1 = 0.101 | 1150.79 | –
308.15 K, x1 = 0.1349 | 1172.11 | –
308.15 K, x1 = 0.1643 | 1192.66 | –
308.15 K, x1 = 0.1969 | – | 33.4
308.15 K, x1 = 0.2133 | 1222.1 | –
308.15 K, x1 = 0.2513 | – | 31.8
308.15 K, x1 = 0.3045 | 1273.53 | –
308.15 K, x1 = 0.3299 | – | 29.8
308.15 K, x1 = 0.383 | – | 28.7
308.15 K, x1 = 0.4641 | 1355.26 | –
308.15 K, x1 = 0.5159 | – | 26.6
308.15 K, x1 = 0.6022 | 1418.04 | –
308.15 K, x1 = 0.6043 | – | 25.6
308.15 K, x1 = 0.6909 | – | 24.7
308.15 K, x1 = 0.7132 | 1464.13 | –
308.15 K, x1 = 0.7493 | – | 24.5
308.15 K, x1 = 0.7604 | 1482.25 | –
308.15 K, x1 = 0.8663 | – | 24.2
308.15 K, x1 = 0.8683 | 1521.44 | –
308.15 K, x1 = 0.913 | 1536.79 | –
313.15 K, x1 = 0.0499 | 1116.12 | –
313.15 K, x1 = 0.0994 | – | 36.8
313.15 K, x1 = 0.101 | 1146.87 | –
313.15 K, x1 = 0.1349 | 1168.13 | –
313.15 K, x1 = 0.1643 | 1185.85 | –
313.15 K, x1 = 0.1969 | – | 33
313.15 K, x1 = 0.2133 | 1214.87 | –
313.15 K, x1 = 0.2513 | – | 31.4
313.15 K, x1 = 0.3045 | 1267.49 | –
313.15 K, x1 = 0.3299 | – | 29.2
313.15 K, x1 = 0.383 | – | 28.1
313.15 K, x1 = 0.4641 | 1348.78 | –
313.15 K, x1 = 0.5159 | – | 26
313.15 K, x1 = 0.6022 | 1410.05 | –
313.15 K, x1 = 0.6043 | – | 25
313.15 K, x1 = 0.6909 | – | 24.3
313.15 K, x1 = 0.7132 | 1455.61 | –
313.15 K, x1 = 0.7493 | – | 23.9
313.15 K, x1 = 0.7604 | 1473.5 | –
313.15 K, x1 = 0.8663 | – | 23.7
313.15 K, x1 = 0.8683 | 1512.23 | –
313.15 K, x1 = 0.913 | 1527.34 | –
